In PubChem BioAssay (NCI):
Where “and” joins values, the source holds several entries; their conditions need not be identical. Identical values can stand only once.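 1) Cells in 96-well plates. 2) Compound, 48 h, 5 concentrations. 3) Linear interpolation between surrounding doses. 4) Unreached endpoint = highest concentration. Here, GI50 denotes the concentration required for 50% inhibition of growth. At the TGI there is no net growth.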

What was measured:
Assay in all cases: DTP human tumour cell line panel, 48 h
ACHN renal = system: ACHN renal
EKVX NSCLC = system: EKVX NSCLC
HCC-2998 colon = system: HCC-2998 colon
HL-60(TB) leukemia = system: HL-60(TB) leukemia
HS 578T breast = system: HS 578T breast
M14 melanoma = system: M14 melanoma
RXF 393 renal = system: RXF 393 renal
SNB-19 CNS = system: SNB-19 CNS
SW-620 colon = system: SW-620 colon
U251 CNS = system: U251 CNS

| SMILES | GI50 (ACHN renal) | TGI (ACHN renal) | GI50 (EKVX NSCLC) | TGI (EKVX NSCLC) | GI50 (HCC-2998 colon) | TGI (HCC-2998 colon) | GI50 (HL-60(TB) leukemia) | TGI (HL-60(TB) leukemia) | GI50 (HS 578T breast) | TGI (HS 578T breast) | GI50 (M14 melanoma) | TGI (M14 melanoma) | GI50 (RXF 393 renal) | TGI (RXF 393 renal) | GI50 (SNB-19 CNS) | TGI (SNB-19 CNS) | GI50 (SW-620 colon) | TGI (SW-620 colon) | GI50 (U251 CNS) | TGI (U251 CNS) |
| --- | --- | --- | --- | --- | --- | --- | --- | --- | --- | --- | --- | --- | --- | --- | --- | --- | --- | --- | --- | --- |
| NS(=O)(=O)c1cccc(-c2cc3ccncc3cc2OCc2ccccc2)c1 | 8.14 µM | > 25 µM | 9.67 µM | > 25 µM | 15.2 µM | > 25 µM | 4.64 µM | 13.5 µM | 4.2 µM | > 18.4 µM | 14.5 µM | > 25 µM | 4.96 µM | > 21.8 µM | 19.1 µM | > 25 µM | 9.92 µM | > 25 µM | 13 µM | > 25 µM |
| Cc1cc(Br)c2nsnc2c1[N+](=O)[O-] | 4.39 µM | 15.5 µM | 1.76 µM | 5.73 µM | 2.07 µM | 4.44 µM | 1.86 µM | 4.56 µM | 2.97 µM | 18.4 µM | 1.77 µM | 3.32 µM | 6.66 µM | 18.5 µM | 7.63 µM | 20.6 µM | 2.15 µM | 15.1 µM | 2.73 µM | 8.12 µM |
| Nc1cccc2c1CN(C1CCC(=O)NC1=O)C2=O (stereo not given) | > 100 µM | > 100 µM | > 100 µM | > 100 µM | > 100 µM | > 100 µM | > 100 µM | > 100 µM | > 100 µM | > 100 µM | > 100 µM | > 100 µM | > 100 µM | > 100 µM | > 100 µM | > 100 µM | > 100 µM | > 100 µM | > 100 µM | > 100 µM |
| O=C1c2ccccc2C(=O)c2c(NCCNCCO)ccc(NCCNCCO)c21 | 2.05 µM and 0.967 µM and 1.39 µM | 49 µM and 13 µM and > 44.8 µM | 1.97 µM and 3.65 µM | 10.4 µM and 26.3 µM | 1.39 µM and 1.95 µM and 2.18 µM | 3.78 µM and 7.83 µM and 7.03 µM | 0.274 µM and 0.13 µM and 0.456 µM | 8.67 µM and 10.6 µM | 0.333 µM and 0.208 µM and 1.22 µM | 2.49 µM and 4.02 µM and 5.69 µM | 1.9 µM and 2.64 µM and 1.7 µM | 8.52 µM and 13.6 µM and 11.6 µM | 0.322 µM and 2.43 µM and 1.92 µM | 2 µM and 10.8 µM and 7.68 µM | 0.372 µM and 0.625 µM and 0.584 µM | 4.19 µM and 9.76 µM and 5.58 µM | 1.15 µM and 1.08 µM and 0.838 µM | 11.8 µM and 13.5 µM and 11.3 µM | 0.373 µM and 0.442 µM and 0.285 µM | 5.18 µM and 6.64 µM and 2.96 µM |
| CC(=O)Nc1c(I)c(C(=O)O)c(I)c(N(C)C(C)=O)c1I | > 100 µM | > 100 µM | > 100 µM | > 100 µM | > 100 µM | > 100 µM | > 100 µM | > 100 µM | 46.4 µM | > 100 µM | > 100 µM | > 100 µM | > 100 µM | > 100 µM | > 100 µM | > 100 µM | > 100 µM | > 100 µM | > 100 µM | > 100 µM |
| COc1ccc(Oc2nc(Nc3ccc(N4CCOCC4)cc3)ncc2NC(=O)Nc2cc(OC)cc(OC)c2)cc1 | 4.23 µM | 20.4 µM | 7.56 µM | > 33.3 µM | 2.11 µM | 7.16 µM | 10.8 µM | > 33.3 µM | 8 µM | > 33.3 µM | 3.02 µM | 14.1 µM | 1.54 µM | 5.8 µM | 4.66 µM | 28.8 µM | 3.17 µM | > 33.3 µM | 1.38 µM | 5.88 µM |
| CS(=O)/C(C#N)=C\C=C\c1cccc(Cl)c1 (stereo not given) | 2.78 µM | 10.4 µM | 3.66 µM | 16.7 µM | 1.8 µM | 3.3 µM | 2.38 µM | 7.61 µM | 13.1 µM | 52.6 µM | 2.57 µM | 11.2 µM | 2 µM | 3.9 µM | 1.81 µM | 5.54 µM | 2.71 µM | 11.6 µM | 1.71 µM | 7.81 µM |
| c1cc2ccc3cc2cc1CNCCOCCNCc1ccc2ccc(cc2c1)CNCCOCCNC3 | > 100 µM | > 100 µM | > 100 µM | > 100 µM | > 100 µM | > 100 µM | > 100 µM | > 100 µM | > 100 µM | > 100 µM | > 100 µM | > 100 µM | > 100 µM | > 100 µM | > 100 µM | > 100 µM | > 100 µM | > 100 µM | > 100 µM | > 100 µM |
| O=C(NCCSSCCNC(=O)/C(Cc1ccc(O)c(Br)c1)=N/O)/C(Cc1ccc(O)c(Br)c1)=N/O | – | 5.77 µM | – | > 24 µM | – | 8.11 µM | – | > 22.6 µM | – | > 50 µM | – | 7.22 µM | – | 2 µM | – | 7.96 µM | – | 14.3 µM | – | 4.53 µM |
| Cc1cc2oc(=O)c(Cl)c(Cl)c2c(C)c1Cl | – | 23.3 µM | – | 34.5 µM | – | 14.1 µM | – | 4.93 µM | – | 9.64 µM | – | 22.4 µM | – | 6.03 µM | – | 24.6 µM | – | 2.94 µM | – | 8.45 µM |
| [CH3][Sn]([CH3])([CH3])[O]C(=O)C(O)c1ccccc1 (stereo not given) | 4.27 µM | > 100 µM | 5.36 µM | 55.7 µM | 2.32 µM | 7.15 µM | 4.75 µM | > 40.5 µM | 11.5 µM | 59.8 µM | 1.98 µM | 4.15 µM | 3 µM | 7.43 µM | 17 µM | > 89.2 µM | 5.13 µM | > 100 µM | 5.84 µM | > 95.3 µM |
| Cc1ccc(NC(C(=O)c2ccccc2)c2ccccc2)cc1 (stereo not given) | 7.94 µM | > 100 µM | 1 µM | 6 µM | 4.52 µM | > 100 µM | 2.59 µM | 6.57 µM | 2.09 µM | 7.79 µM | 4 µM | 33.4 µM | 17.6 µM | 46.3 µM | 4.26 µM | > 100 µM | 3.47 µM | > 100 µM | 4.24 µM | 25.1 µM |
| COc1ccc(C2=NNC(c3cc(Cc4ccc(O)c(C5CC(c6ccc(OC)cc6)=NN5)c4)ccc3O)C2)cc1 (stereo not given) | 5.56 µM | > 100 µM | 23.3 µM | > 100 µM | 46 µM | > 100 µM | 23.4 µM | > 100 µM | 5.58 µM | 68 µM | 10.4 µM | 38.3 µM | 4.18 µM | 48.3 µM | 6.89 µM | > 100 µM | 7.96 µM | > 100 µM | 5.84 µM | > 100 µM |
| Cc1ccc2c(n1)C(=O)C(Cl)=C(Nc1ccc(N3CCN(C)CC3)cc1)C2=O | 1.75 µM | 3.13 µM | 1.73 µM | 3.12 µM | 4.54 µM | 17.5 µM | 2.22 µM | 4.89 µM | 2.47 µM | 7.49 µM | 1.84 µM | 3.32 µM | 1.67 µM | 3.05 µM | 9.46 µM | 21.7 µM | 2.01 µM | 4.52 µM | 1.79 µM | 3.19 µM |
| NC(Cn1ccc(=O)c(O)c1)C(=O)O (stereo not given) | – | > 100 µM | – | > 100 µM | – | > 100 µM | – | > 100 µM | – | > 100 µM | – | > 100 µM | – | > 100 µM | – | > 100 µM | – | > 100 µM | – | > 100 µM |
| CCc1ccc(Oc2nccc(-c3c(-c4ccc(F)cc4)ncn3C3CCNCC3)n2)cc1 | 4.77 µM | 13.6 µM | 7.2 µM | 14.2 µM | 3.94 µM | 7.61 µM | 5.78 µM | 11.5 µM | 7.01 µM | 17.1 µM | 5.46 µM | 10.8 µM | 3.99 µM | 7.49 µM | 7.84 µM | 17.2 µM | 4.35 µM | 8.74 µM | 4.06 µM | 9.16 µM |
